System: EoL-1 (human eosinophilic leukaemia cell line) cells
Assay: TNF-α-induced cytokine release, EoL-1 cells differentiated with PMA (Luminex)
Format: cell-based
Design: key to IL-1α (PMA), p of decrement / IL-1β (PMA), p of decrement / IL-1ra (PMA), p of decrement / IL-5 (PMA), p of decrement / IL-7 (PMA), p of decrement / IL-8 (PMA), p of decrement / IP-10 (PMA), p of decrement / MCP-1 (PMA), p of decrement / MIP-1β (PMA), p of decrement / RANTES (PMA), p of decrement / VEGF (PMA), p of decrement / Fractalkine (PMA), p of decrement / MIP-1α (PMA), p of decrement: ns = non significant
Method: EoL-1 (human eosinophilic leukaemia cell line) cells (Saito et al., 1985; Mayumi, 1992) were maintained in RPMI-1640 medium with L-glutamine supplemented with 10% (v/v) FBS at 37° C. in a humidified atmosphere with 5% CO2. Where indicated, 24 h before the experiment 25 ng/mL PMA ((phorbol 12-myristate 13-acetate, purchased from Sigma Aldrich) was added to the medium to induce eosinophil granulation and differentiation (Ohtsu et al., 1993; Zimmermann et al., 2000).
Half-million cells were aliquoted per point in a 24 well plate; each experiment was performed in triplicate and carried out in parallel with eosinophils differentiated and non differentiated with PMA (25 ng/mL, 24 h). Cells were suspended in low serum medium (RPMI-1640, 0.1% (v/v) FBS). TNF-α was used to induce cytokine secretion as previously described by Steube et al. (2000), and the net release was obtained by comparison to the basal (non-TNF-α treated). In the first experiment we evaluated the concentration and time relation between TNF-α stimulation and cytokine release. Therefore, 5, 10, and 25 ng/mL of TNF-α was administered to the cells at 0, ½, 1, 2, 3, 6, 12 and 24 h (data not shown). An aliquot of 150 μL of supernate was collected for cytokines' analysis. […] Differentiated and non-differentiated EoL-1 cells were exposed from 0.1 to 2.3 mM levocabastine ([…]Levocabastine 0.05% solution eye drops containing cyclodextrins, without benzalkonium chloride), and aliquots of the supernates were collected after 12 and 24 h. The content of cytokines at time zero was estimated by treating the cells with 400 nM calcimycin (A-23187), which is a cytolytic agent that frees all the mediators from the cytoplasmic compartment. In addition, for each experiment we tested the effect of the vehicle, which was added to the wells in a concentration equal to the maximum amount used for drug dilution.
Samples (supernates 12 and 24 h) in triplicate were analyzed using Luminex 200™ (Luminex, Austin, Tex.) and Beadview software v1.0 (Upstate Cell Signaling Solutions, Temecula, Calif.).
All data are presented as mean±SEM for the indicated number of experiments. Statistical significance was determined by Newman-Keuls test after ANOVA using GraphPad Prism (version 3.0; GraphPad Software Inc., San Diego, Calif., USA). P-values<0.05 were considered to be significant.

[1] = 24 h, Levocabastine 2 mM vs TNF-α
[2] = 24 h, TNF-α 5 ng + Levocabastine 2 mM vs TNF-α
[3] = 24 h, TNF-α 10 ng + Levocabastine 2 mM vs TNF-α
[4] = 24 h, TNF-α 20 ng + Levocabastine 2 mM vs TNF-α
[5] = 24 h, TNF-α 5, 10, 20 ng + Levocabastine 2 mM vs TNF-α
[6] = 24 h, VCAM-1 + Levocabastine 2 mM vs VCAM-1

## C[C@@H]1CN([C@H]2CC[C@](C#N)(c3ccc(F)cc3)CC2)CC[C@]1(C(=O)O)c1ccccc1 [Levocabastine, levocabastine]
[1]
  IL-12p40 (PMA), p of decrement: P < 0.001
  IP-10 (PMA), p of decrement: ns
  MCP-1 (PMA), p of decrement: ns
  MIP-1α (PMA), p of decrement: Increase
  MIP-1β (PMA), p of decrement: Increase
  RANTES (PMA), p of decrement: Increase
  TGF-α (PMA), p of decrement: ns
  VEGF (PMA), p of decrement: P < 0.001
[2]
  Fractalkine (PMA), p of decrement: ns
  G-CSF (PMA), p of decrement: ns
  GM CSF (PMA), p of decrement: ns
  IL-1β (PMA), p of decrement: ns
  IL-5 (PMA), p of decrement: ns
  IL-6 (PMA), p of decrement: ns
  IL-7 (PMA), p of decrement: ns
  IL-8 (PMA), p of decrement: P < 0.001
  IL-10 (PMA), p of decrement: ns
  IL-12p40 (PMA), p of decrement: ns
  IP-10 (PMA), p of decrement: ns
  MCP-1 (PMA), p of decrement: ns
  MIP-1α (PMA), p of decrement: ns
  MIP-1β (PMA), p of decrement: ns
  TGF-α (PMA), p of decrement: ns
  VEGF (PMA), p of decrement: P < 0.05
[3]
  Fractalkine (PMA), p of decrement: ns
  G-CSF (PMA), p of decrement: ns
  GM CSF (PMA), p of decrement: ns
  IL-1β (PMA), p of decrement: ns
  IL-5 (PMA), p of decrement: ns
  IL-6 (PMA), p of decrement: ns
  IL-7 (PMA), p of decrement: ns
  IL-8 (PMA), p of decrement: P < 0.001
  IL-10 (PMA), p of decrement: ns
  IL-12p40 (PMA), p of decrement: ns
  IP-10 (PMA), p of decrement: ns
  MCP-1 (PMA), p of decrement: ns
  MIP-1α (PMA), p of decrement: ns
  MIP-1β (PMA), p of decrement: ns
  TGF-α (PMA), p of decrement: ns
  VEGF (PMA), p of decrement: ns
[4]
  Fractalkine (PMA), p of decrement: ns
  G-CSF (PMA), p of decrement: ns
  GM CSF (PMA), p of decrement: ns
  IL-1β (PMA), p of decrement: ns
  IL-5 (PMA), p of decrement: ns
  IL-6 (PMA), p of decrement: ns
  IL-7 (PMA), p of decrement: ns
  IL-8 (PMA), p of decrement: P < 0.001
  IL-10 (PMA), p of decrement: ns
  IL-12p40 (PMA), p of decrement: ns
  IP-10 (PMA), p of decrement: ns
  MCP-1 (PMA), p of decrement: ns
  MIP-1α (PMA), p of decrement: ns
  MIP-1β (PMA), p of decrement: ns
  TGF-α (PMA), p of decrement: ns
  VEGF (PMA), p of decrement: P < 0.05
[5]
  IL-1ra (PMA), p of decrement: increase of cytokine secretion
  IL-1α (PMA), p of decrement: increase of cytokine secretion
  RANTES (PMA), p of decrement: increase of cytokine secretion
24 h, TNF-α vs Lev 0.1 mM
  Fractalkine (PMA), p of decrement: ns
  IL-1ra (PMA), p of decrement: ns
  IL-1α (PMA), p of decrement: ns
  IL-1β (PMA), p of decrement: p < 0.05
  IL-5 (PMA), p of decrement: ns
  IL-7 (PMA), p of decrement: ns
  IL-8 (PMA), p of decrement: ns
  IP-10 (PMA), p of decrement: ns
  MCP-1 (PMA), p of decrement: ns
  MIP-1α (PMA), p of decrement: ns
  MIP-1β (PMA), p of decrement: ns
  RANTES (PMA), p of decrement: ns
  VEGF (PMA), p of decrement: ns
24 h, TNF-α vs Lev 0.5 mM
  Fractalkine (PMA), p of decrement: ns
  IL-1ra (PMA), p of decrement: ns
  IL-1α (PMA), p of decrement: ns
  IL-1β (PMA), p of decrement: ns
  IL-5 (PMA), p of decrement: ns
  IL-7 (PMA), p of decrement: ns
  IL-8 (PMA), p of decrement: ns
  IP-10 (PMA), p of decrement: ns
  MCP-1 (PMA), p of decrement: ns
  MIP-1α (PMA), p of decrement: ns
  MIP-1β (PMA), p of decrement: ns
  RANTES (PMA), p of decrement: ns
  VEGF (PMA), p of decrement: ns
24 h, TNF-α vs Lev 1.0 mM
  Fractalkine (PMA), p of decrement: ns
  IL-1ra (PMA), p of decrement: ns
  IL-1α (PMA), p of decrement: ns
  IL-1β (PMA), p of decrement: p < 0.05
  IL-5 (PMA), p of decrement: ns
  IL-7 (PMA), p of decrement: ns
  IL-8 (PMA), p of decrement: ns
  IP-10 (PMA), p of decrement: ns
  MCP-1 (PMA), p of decrement: ns
  MIP-1α (PMA), p of decrement: ns
  MIP-1β (PMA), p of decrement: ns
  RANTES (PMA), p of decrement: ns
  VEGF (PMA), p of decrement: p < 0.05
24 h, TNF-α vs Lev 2.3 mM
  Fractalkine (PMA), p of decrement: p < 0.01
  IL-1ra (PMA), p of decrement: ns
  IL-1α (PMA), p of decrement: ns
  IL-1β (PMA), p of decrement: ns
  IL-5 (PMA), p of decrement: ns
  IL-7 (PMA), p of decrement: ns
  IL-8 (PMA), p of decrement: ns
  IP-10 (PMA), p of decrement: ns
  MCP-1 (PMA), p of decrement: ns
  MIP-1α (PMA), p of decrement: ns
  MIP-1β (PMA), p of decrement: ns
  RANTES (PMA), p of decrement: ns
  VEGF (PMA), p of decrement: p < 0.01
[6]
  Fractalkine (PMA), p of decrement: ns
  G-CSF (PMA), p of decrement: Increase
  GM-CSF (PMA), p of decrement: ns
  IL-1ra (PMA), p of decrement: Increase
  IL-1α (PMA), p of decrement: Increase
  IL-1β (PMA), p of decrement: ns
  IL-5 (PMA), p of decrement: ns
  IL-6 (PMA), p of decrement: ns
  IL-7 (PMA), p of decrement: Increase
  IL-8 (PMA), p of decrement: Increase
  IL-10 (PMA), p of decrement: ns
  IL-12p40 (PMA), p of decrement: P < 0.01
  IP-10 (PMA), p of decrement: ns
  MCP-1 (PMA), p of decrement: Increase
  MIP-1α (PMA), p of decrement: Increase
  MIP-1β (PMA), p of decrement: Increase
  RANTES (PMA), p of decrement: Increase
  TGF-α (PMA), p of decrement: ns
  VEGF (PMA), p of decrement: P < 0.001
EoL-1 cells differentiated with PMA 24 h before the experiment
  release of VEGF (FIG. 4 Panel A): able to reduce the release
PMA differentiated EoL-1 cells after TNF-α challenge
  IL-8 release (FIG. 9): able to reduce

From patent US20130289070A1, “Use of Levocabastine for Modulating Generation of Pro-Inflammatory Cytokines” (Bausch & Lomb Incorporated, priority 2007, published 2013)
